We go through two compounds from patent publication US20230380424A1, “IMPROVEMENTS IN OR RELATING TO COPPER BASED PESTICIDES” (AGRONATURALIS LTD, priority 2020, published 2023).

A short description of series [1]: Surface tension of spray compositions (Kruss DSA30 Drop shape analyser). It is filed as physicochemical. To be noted: composition with 15 ppm copper hydroxide. Here is the method:
(§1) The surface wetting and deposition of copper from spray compositions was determined by comparing compositions containing 15 ppm copper hydroxide with varying amounts of sodium lauryl sulfate (Agnique SLS) on its own, varying amounts of sodium dioctyl sulfosuccinate (Geropon SDS) on its own and various mixtures of the two surfactants.
(§2) The measurements were made using a Kruss DSA30 Drop shape analyser.

Series [2] can be described thus: Contact angle of spray compositions (Kruss DSA30 Drop shape analyser). The class given is physicochemical. To be noted: composition with 15 ppm copper hydroxide. Here is the method:
as §1
Contact angles of the same compositions were also measured.
as §2

With `CCCCCCCCOC(=O)CC(C(=O)OCCCCCCCC)S(=O)(=O)O.[Na]` (stereo not drawn) [Geropon SDS, sodium dioctyl sulfosuccinate], the “surface tension (actual)” value in series [1] (5 ppm surfactant) was 70.0 mN/m; in series [1] (20 ppm surfactant), 55.5 mN/m; in series [1] (50 ppm surfactant) it was 49.6 mN/m; in series [1] (125 ppm surfactant) it was 47.6 mN/m; in series [1] (250 ppm surfactant) it was 43.9 mN/m. For the same compound, the “contact angle trend with concentration” value in series [2] is “stepwise reduction from 5 ppm onwards”.
Consider `CCCCCCCCCCCCOS(=O)(=O)[O-].[Na+]` [Agnique SLS, sodium lauryl sulfate], for which the “surface tension (actual)” value stood at 70.4 mN/m in series [1] (5 ppm surfactant); 70.5 mN/m in series [1] (20 ppm surfactant); 67.3 mN/m in series [1] (50 ppm surfactant); 64.7 mN/m in series [1] (125 ppm surfactant); 64.6 mN/m in series [1] (250 ppm surfactant). For the same compound, in series [2] (across all rates), the contact angle is recorded as > 100 °.
